test system: F11 cells (rat dorsal root ganglion neuron cell line); assay: Effect of decreasing intracellular actin filaments in F11 cells with oxaliplatin-induced axonal injury (phalloidin staining); format: cell-based; settings: F-11 rat/mouse fusion cell line, F11, 120 h, compound 10 μM with oxaliplatin 15 μM, 5 days; compared to oxaliplatin alone treated group; average of five samples; read-out: Decreasing Rate of Intracellular Actin Filament (%)
Text: The effect of the cyclic amine derivative (I) or a pharmacologically acceptable salt thereof on the amount of intracellular actin filaments in F11 cells (rat dorsal root ganglion neuron cell line) was examined.
As test compounds, the compounds of Examples 1, 2, 3, 4, 5, 6, 7, 8, and 9 were used.
As compounds of comparative examples, 1-(4-(dimethylamino)piperidin-1-yl)-3-(1-ethyl-1H-imidazol-2-yl)-3-hydroxypropan-1-one (hereinafter, the compound of Comparative Example 1), 1-(4-(dimethylamino)piperidin-1-yl)-3-hydroxy-3-(1-(2,2,2-trifluoroethyl)-1H-imidazol-2-yl)propan-1-one (hereinafter, the compound of Comparative Example 2), 1-((R)-3-(dimethylamino)pyrrolidin-1-yl)-3-hydroxy-3-(1-methyl-1H-imidazol-2-yl)propan-1-one (hereinafter, the compound of Comparative Example 3), and 1-((R)-[…]-3-hydroxy-3-(1-methyl-1H-imidazol-2-yl)propan-1-one (hereinafter, the compound of Comparative Example 4) shown in Table 4 were used. The compounds of Comparative Examples 1, 2, 3, and 4 were synthesized in accordance with methods described in International Publication No. WO2016/136944.
For peeling the F11 cells off from a culture flask, 0.25% Trypsin/EDTA (manufactured by Thermo Fisher Scientific K.K.) was added to the cells, followed by incubation at room temperature for several minutes. Thereafter, 10% fetal bovine serum-containing DMEM medium (manufactured by Thermo Fisher Scientific K.K.) was added thereto for suspension, and the resultant centrifuged at 1,500 rpm for 1 minute. After removing the resultant centrifugal supernatant, 0.5% fetal bovine serum-containing DMEM medium was added thereto for suspending cells therein, and the resultant seeded in a poly-D-lysine-coated 96 well plate (manufactured by BD Biosciences) coated with laminin (2 μg/cm^2, manufactured by Sigma Aldrich) to be cultured at 37° C. under an environment of 5% CO2. Two hours after seeding the cells, N,N-dibutyladenosine 3′,5′-phosphate (final concentration 1 mM, manufactured by Sigma Aldrich) and recombinant rat GDNF (final concentration 50 ng/mL, manufactured by PeproTech) were added thereto to culture the cells at 37° C. under an environment of 5% CO2 for 7 days for differentiation.
Seven days after starting the culture, the medium was exchanged with 0.5% fetal bovine serum-containing DMEM medium containing oxaliplatin (final concentration 15 μM), and the resultant cultured for 5 days to induce axonal injury. Each of the compounds of Examples and Comparative Examples was caused to be contained in the medium (final concentration 10 μM) for treatment in the same manner as oxaliplatin.
Five days after treatment with oxaliplatin and each of the compounds, the resultant cells were washed with PBS(−) three times, a 4% paraformaldehyde-phosphate buffer (manufactured by Wako Pure Chemical Industries Ltd.) was added thereto, and the resultant allowed to stand still at room temperature for 10 minutes to fix the cells. Acti-stain 670 phalloidin (manufactured by Cytoskeleton Inc.) was added thereto, and the resultant incubated at room temperature for 30 minutes to stain actin filaments. An image of the cells was acquired using IN Cell Analyzer 2200 (manufactured by GE Healthcare), and the image analyzed using IN Cell Investigator Developer Toolbox. The amount of intracellular actin filaments was indicated by the amount of fluorescence (density) of fluorescent-labeled phalloidin binding to the actin filaments.
In a group treated with oxaliplatin alone (hereinafter, the oxaliplatin alone treated group), the amount of intracellular actin filaments increased by 5% compared to that in a group not treated with oxaliplatin. […] A decreasing rate of intracellular actin filaments, caused by each compound compared to the amount of intracellular actin filaments of the oxaliplatin alone treated group was calculated. […]

`CN1CCN(C2CCN(C(=O)CC(O)c3nccn3C)CC2)CC1` (stereo not shown) [Example 8, 3-hydroxy-3-(1-methyl-1H-imidazol-2-yl)-1-(4-(4-methylpiperazin-1-yl)piperidin-1-yl)propan-1-one] and `Cn1ccnc1C(O)CC(=O)N1CCC(N2CCOCC2)CC1` (stereo not shown) [Example 1, 3-hydroxy-3-(1-methyl-1H-imidazol-2-yl)-1-(4-morpholinopiperidin-1-yl)propan-1-one] cannot be ordered by inhibition at 10 µM: ≥ 5% for the first, ≥ 5% for the second.

`CN(C)C1CCN(C(=O)CC(O)c2nccn2CC(F)(F)F)CC1` (stereo not shown) [Comparative Example 2, 1-(4-(dimethylamino)piperidin-1-yl)-3-hydroxy-3-(1-(2,2,2-trifluoroethyl)-1H-imidazol-2-yl)propan-1-one, reference compound] and `CN(C)C1CCN(C(=O)CC(O)c2nccn2CCC(F)(F)F)CC1` (stereo not shown) [Example 6, 1-(4-(dimethylamino)piperidin-1-yl)-3-(1-(3,3,3-trifluoropropyl)-1H-imidazol-2-yl)-3-hydroxypropan-1-one] cannot be ordered by inhibition at 10 µM: ≤ 5% for the first, ≥ 5% for the second.

`CN(C)C1CCN(C(=O)CC(O)c2ncc(Cl)n2C)CC1` (stereo not shown) [Example 4, 3-(5-chloro-1-methyl-1H-imidazol-2-yl)-1-(4-(dimethylamino)piperidin-1-yl)-3-hydroxypropan-1-one] and `CC(C)n1ccnc1C(O)CC(=O)N1CCC(N(C)C)CC1` (stereo not shown) [Example 3, 1-(4-(dimethylamino)piperidin-1-yl)-3-(1-isopropyl-1H-imidazol-2-yl)-3-hydroxypropan-1-one] cannot be ordered by inhibition at 10 µM: ≥ 5% for the first, ≥ 5% for the second.

`COCCn1ccnc1C(O)CC(=O)N1CCC(N(C)C)CC1` (stereo not shown) [Example 5, 1-(4-(dimethylamino)piperidin-1-yl)-3-(1-(2-methoxyethyl)-1H-imidazol-2-yl)-3-hydroxypropan-1-one] and `CN(C)[C@@H]1CCCN(C(=O)CC(O)c2nccn2C)C1` (stereo partly shown) [Comparative Example 4, reference compound] cannot be ordered by inhibition at 10 µM: ≥ 5% for the first, ≤ 5% for the second.

same assay, conditions: oxaliplatin alone 15 μM, 5 days; p<0.05

In the case of `O=C1[O][Pt]2([NH][C@@H]3CCCC[C@H]3[NH]2)[O]C1=O` [oxaliplatin, reference compound], the “increase of the amount of intracellular actin filaments compared to a group not treated with oxaliplatin” value was 5%.

test system: primary cultured cells of rat dorsal root ganglion; assay: Axon (neurite) extension in primary cultured cells of rat dorsal root ganglion with oxaliplatin-induced axonal injury; format: cell-based; settings: oxaliplatin alone 3 μM, 7 days; p<0.05
Text: The effect of the cyclic amine derivative (I) or a pharmacologically acceptable salt thereof on neurite extension in primary cultured cells of rat dorsal root ganglion was examined.
Male SD rats (manufactured by Charles River Laboratories Japan, Inc.) of 4 to 7 weeks old were used. Each rat was anesthetized by intraperitoneally administering urethane. After confirming that the rat was anesthetized, the rat was rapidly euthanized by exsanguination from the abdominal aorta. After incision of the dorsal part, the spinal column was excised and cooled on ice. The dorsal side of the spinal column was cut off, and the spinal cord was removed from the ventral side of the spinal column to expose the dorsal root ganglia on the ventral side of the spinal column. The dorsal root ganglia (L3 to 6, right and left) were excised with tweezers, and dipped in ice-cold Leibovitz's L-15 medium (manufactured by Thermo Fisher Scientific), and the bundles of nerve fibers were removed under a stereoscopic microscope. The dorsal root ganglia from which the bundles of nerve fibers had been removed were made fine slits with ophthalmic scissors to be used as dorsal root ganglion pieces.
The dorsal root ganglion pieces were dipped in about 3 mL of a solution of collagenase A (manufactured by Roche Molecular Systems, Inc.), followed by incubation at 37° C. for 20 minutes. After the incubation, the resultant was centrifuged at 200×g at 25° C. for 5 minutes to remove a collagenase A solution corresponding to the supernatant. About 1 mL of a solution of trypsin was added thereto, followed by incubation at 37° C. for 5 minutes. Subsequently, about 3 mL of DMEM (manufactured by Thermo Fisher Scientific K.K.) containing 10% fetal bovine serum was added to the resultant, the resultant centrifuged at 200×g at room temperature for 5 minutes, and then the supernatant removed. […]

With `O=C1[O][Pt]2([NH][C@@H]3CCCC[C@H]3[NH]2)[O]C1=O` [oxaliplatin, reference compound] the “length of a neurite compared to the non-treated group” value was “significantly reduced”.
